The results in this text go back to patent US20220175720A1, “COMBINED P[…] ANTHOCYANIN COMPOSITION AND AN ANTIVIRAL AGENT” (priority 2019, published 2022).

In experiment [1] the test system is GFP-encoding wildtype HSV-1 virus. In words: HSV-1 infection assay, GFP-expressing infected cells counted directly. It counts as cell-based, herpes simplex virus 1. Particulars: single anthocyanins, BHK cells. The method, then: BHK cells were incubated with decreasing concentration of the solubilized test compounds for approx. 1 h. All concentrations were analyzed by six independent replicates on a black 96 well plate (PerkinElmer). Cells were infected with GFP-encoding wildtype HSV-1 virus and incubated for two days. Two days after infection, HSV-1-infected cells and GFP expressing cells were directly counted using the PerkinElmer Ensight system with optical cell culture plates. The instrument was controlled by manual counting.
The cells were subsequently infected with GFP-encoding HSV at a multiplicity of infection of 2.5, and infected GFP-expressing cells were counted one day after infection using the PerkinElmer Ensight system. […] Thus, the sugar is not required as potential co-factor for drug uptake.

The test system of the next experiment is HSV-1. Nature of the experiment: HSV-1 complete replication cycle assay, supernatants used to infect fresh BHK cells. Type of experiment: cell-based, herpes simplex virus 1. As to the method:
To not only analyze the virus entry and early phase of virus replication of infection but also later phases of viral replication, the test assay was adjusted accordingly. BHK cells were incubated with test compounds and subsequently infected with HSV-1. Two days after infection supernatants were collected, centrifuged to remove detached cells and used to infect BHK cells. After two additional days infected cells were quantified using the Ensight system.
Two days after infection supernatants were collected, centrifuged to remove detached cells and used to infect BHK cells. After two additional days infected cells were quantified using the PerkinElmer Ensight system. The mean of infected cells from six independent wells was calculated. Error bars show the standard deviation.
(§1) However, Aciclovir, the standard therapy for HSV-1, targets viral DNA replication before the late phase of virus replication cycle. […] Two days after infection supernatants were collected, centrifuged to remove detached cells and used to infect BHK cells. After two addition days infected cells were quantified.
as §1

Each structure is given as a SMILES string.

As to `OC[C@H]1O[C@@H](Oc2cc3c(O)cc(O)cc3[o+]c2-c2cc(O)c(O)c(O)c2)[C@H](O)[C@@H](O)[C@H]1O` [D3Gal, Delphinidin 3-galactoside], the “inhibition of HSV-1 (viral infectivity)” value in experiment [1] is recorded as “Neither C3G nor D3Gal or Pet3G inhibited HSV-1”. As to `Nc1nc2c(ncn2COCCO)c(=O)[nH]1` [Aciclovir, 9-(2-hydroxyethoxymethyl)guanine], the “reduction of infected cells” value in the experiment with HSV-1 (0.5 μg/ml Aciclovir alone) is listed as “two”. For the same compound, the “reduction of viral infectivity” value in the experiment on HSV-1 (2 μg/ml Aciclovir alone) is listed as “two”. Turning to `OC[C@H]1O[C@@H](Oc2cc3c(O)cc(O)cc3[o+]c2-c2ccc(O)c(O)c2)[C@H](O)[C@@H](O)[C@@H]1O` [C3G, Cyanidin 3-glucoside], the “inhibition of HSV-1 (viral infectivity)” value in experiment [1] is on record as “Neither C3G nor D3Gal or Pet3G inhibited HSV-1”. Same read-out and setting: with `COc1cc(-c2[o+]c3cc(O)cc(O)c3cc2O[C@@H]2O[C@H](CO)[C@@H](O)[C@H](O)[C@H]2O)cc(O)c1O` [Pet3G, Petunidin 3-glucoside] the entry was “Neither C3G nor D3Gal or Pet3G inhibited HSV-1”.
